BindingDB's records for PubMed 30559935 (University of Nottingham)

Assays:
[1] = Inhibition of EZH2 in human EPN8 cells assessed as reduction in cell viability incubated for 120 hrs by MTT assay
[2] = Inhibition of EZH2 in human DKFZ-EP1 cells assessed as reduction in cell viability incubated for 120 hrs by MTT assay
[3] = Inhibition of EZH2 in human BXD-1425EPN cells assessed as reduction in cell viability incubated for 120 hrs by MTT assay

What does the source list for `CCCc1cc(C)[nH]c(=O)c1CNC(=O)c1cc(-c2ccnc(N3CCN(C)CC3)c2)cc2c1cnn2C(C)C`?
IC50 [1]: 20 µM; IC50 [2]: 20 µM; IC50 [3]: 16 µM
